Laboratory results: patent publication US9809562B2, “NAT10 modulators for treating or preventing laminopathies, aging and cancer” (CAMBRIDGE ENTERPRISE LIMITED, priority 2014, dated 2017)
Structures can show the parent of a compound that is named as a salt.

How the values were obtained:
Assay type in all cases: cell-based, human
[1] = system: HGPS primary fibroblasts (AG11498 and AG06267); test: Misshapen nuclei in HGPS cells; details: HGPS patient fibroblasts
Experimental: U2OS and SaOS-2 osteosarcoma cells, HeLa cervical cancer cells, A431 melanoma cells, NCI-SNU5 gastric cancer cells, MRC-5 lung fibroblast cells and Werner syndrome patient-derived SV40 fibroblast cells were grown in Dulbecco's modified Eagle medium (DMEM, Sigma-Aldrich) supplemented with 10% fetal bovine serum (BioSera), 2 mM L-glutamine, 100 U per ml penicillin, 100 μg ml^−1 streptomycin. Normal skin primary fibroblasts GM03440 and Hutchinson Gilford Progeria Syndrome (HGPS) skin primary fibroblasts AG11498 and AG06297 were purchased from Coriell Cell Repositories and used between passage number 9-12 and 20-23 respectively. Cells were grown in DMEM supplemented as above. RPE-1 retinal pigment epithelial cells were grown in DMEM and Ham F12 mix medium supplemented as above and buffered with sodium bicarbonate. HMV-II melanoma cell line, 22RV1 prostate carcinoma cells, NCI-H82 and NCI-H69 lung carcinoma cells, and NCI-N87 gastric cancer cell lines were grown in RPMI-1640 medium (Sigma-Aldrich) supplemented as above. Stably transfected U2OS cells were maintained in standard medium containing 1 mg ml^−1 G418 (Invitrogen). The siRNA duplexes were obtained from Life Sciences: Lamin A/C stealth RNAi: […] (SEQ ID NO: 1) and […] (SEQ ID NO: 2), NAT10 stealth RNAi: […] (SEQ ID NO: 3), and as control siRNA, stealth RNAi negative control duplexes were used. Plasmid DNA and siRNA transfections were carried out using Lipofectamine 2000 and Lipofectamine RNAiMax (Life Sciences) respectively, following the manufacturer's instructions. Cells were analysed 48 to 72 hours after transfection.
The following KAT and KDAC inhibitors were used in the nuclear shape rescue screen, incubating cells with the molecules for 16 hours: trichostatin A (1 μM), sodium butyrate (5 mM), tubacin (10 μM), SAHA (5 μM), curcumin (10 μM), garcinol (50 μM), anacardic acid (1 μM), MB-3 (5 μM), 4-(4-chlorophenyl)-2-(2-cyclopentylidenehydrazinyl)thiazole (Compound 2) (50 μM), 4-(4-chlorophenyl)-2-(2-cyclopentylidene-1-(prop-2-yn-1-yl)hydrazinyl)thiazole (Compound 3) (50 μM) and cyclopentylidene-[4-(4-cyanophenyl)thiazol-2-yl)hydrazine (Compound 1) (Remodelin) (10 to 50 μM). For HGPS cellular fitness assays, Remodelin was incubated at 1 μM for 1 to 10 days, renewing the medium every 3 days. For long-term senescence assay, cells were kept and passaged in medium containing 1 μM Remodelin or DMSO only for 12 population doublings. Senescence was assessed after 8 days of Remodelin treatment when cells were at Population Doubling 12, and then after several weeks of Remodelin treatment, when cells reached Population Doubling 24 using the Senescence β-Galactosidase Staining Kit #9860 from Cell Signaling. Nocodazole, colchicine and latrunculin A (Sigma-Aldrich) were used at 200 ng/ml, 1 μg/ml and 1 μM respectively. […]

siLMNA cells = test: Micrococcal nuclease digestion sensitivity assay and nuclear area (chromatin compaction)
Experimental: CellProfiler software was used to quantify nuclear circularity and nuclear area from DAPI staining pictures, using the “object size shape” measurement. The AreaShape measurement allowed the calculation of the Form Factor index ([…]) corresponding to circularity (a Form Factor of 1 reflecting a perfect circle), as well as the calculation of nuclear Area.
1×10^6 cells were trypsinized, harvested, and washed once with 1 ml of 1×RSB buffer (10 mM Tris, pH 7.6, 15 mM NaCl, and 1.5 mM MgCl2). After centrifugation ([…]), the cell pellet was resuspended in 1 ml of 1×RSB buffer with 1% Triton-X 100 and homogenized by five strokes with a loose-fitting glass pestle to release nuclei. Nuclei were collected by centrifugation (13,000×g) and washed twice with 1 ml of buffer A (15 mM Tris, pH 7.5, 15 mM NaCl, 60 mM KCl, 0.34 M sucrose, 0.5 mM spermidine, 0.15 mM spermine, 0.25 mM PMSF, and 0.1% β-mercaptoethanol). Nuclei were resuspended in Buffer A and aliquoted into 100 μl aliquots. […] DNA was purified using the Qiagen PCR purification kit and 1500 ng of DNA was analysed on a 1.5% agarose gel. Digestion profiles were analysed using ImageJ and values were adjusted relative to the global intensity of each lane to compensate for DNA loading variations.

[2] = system: GFP-H2B expressing U2OS cells transfected with siLMNA; test: Live imaging of GFP-H2B cells; details: Compound 2 at 50 μM, independently of mitosis
Experimental: U2OS cells were transfected with siLMNA for 48 hours before addition of (Compound 2) at 50 μM. Pictures were acquired every 15 minutes for 16 hours in z-stack of 0.2 μm interval with a Deltavision PersonalDV (Applied Precision, 512×512 CoolSNAP HQ2 camera) equipped with a 100× UPlanSApo/1.40 oil objective (Olympus) and controlled with SoftWoRx software (Applied Precision). Movies were then assembled from pictures with ImageJ software.

Row | Structure (SMILES) | misshapen nuclei / nuclear shape of HGPS cells [1] | global chromatin compaction (MNase sensitivity) (siLMNA cells) | nuclear area (siLMNA cells) | time to complete nuclear shape rescue [2] [h]
1 | N#Cc1ccc(-c2csc(NN=C3CCCC3)n2)cc1 [Compound 1, 4-(4-Cyanophenyl)-2-(2-cyclopentylidenehydrazinyl)thiazole] | significantly reduced the number of HGPS cells with misshapen nuclei | – | – | –
2 | Clc1ccc(-c2csc(NN=C3CCCC3)n2)cc1 [Compound 2, 4-(4-Chlorophenyl)-2-(2-cyclopentylidenehydrazinyl)thiazole Hydrochloride Salt] | – | decreased MNase sensitivity | reduced nuclear area | ≤ 12
